The target in the test is T1, microsomal h-COX2 (Homo sapiens, UniProt P35354).
T1 construct: made in house; host or cells: baculovirus infected SF9 cells (microsomal preparation)
T1 sequence (P35354 18-604): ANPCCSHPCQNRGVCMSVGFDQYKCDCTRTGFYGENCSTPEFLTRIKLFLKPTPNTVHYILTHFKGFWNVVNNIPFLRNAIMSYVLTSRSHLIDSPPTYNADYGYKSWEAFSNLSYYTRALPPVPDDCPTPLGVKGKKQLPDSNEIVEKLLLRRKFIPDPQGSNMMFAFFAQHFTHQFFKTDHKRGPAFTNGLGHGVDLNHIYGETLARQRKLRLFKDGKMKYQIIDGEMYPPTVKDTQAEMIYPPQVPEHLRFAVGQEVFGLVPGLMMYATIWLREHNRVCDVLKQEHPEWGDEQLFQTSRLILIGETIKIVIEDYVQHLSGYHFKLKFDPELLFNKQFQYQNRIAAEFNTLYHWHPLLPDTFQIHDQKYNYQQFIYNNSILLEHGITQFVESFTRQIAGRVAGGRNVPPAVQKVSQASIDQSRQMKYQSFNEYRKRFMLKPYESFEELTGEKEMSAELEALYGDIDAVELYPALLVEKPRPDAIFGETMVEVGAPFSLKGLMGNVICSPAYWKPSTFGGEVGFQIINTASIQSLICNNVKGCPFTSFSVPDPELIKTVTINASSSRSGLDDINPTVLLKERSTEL
The test can be described thus: Microsomal assay: inhibitory activity against microsomal h-COX2. It counts as biochemical. The settings on record: microsomal preparation from baculovirus infected SF9 cells; 1 hour incubation with compound; 0.1 μM arachidonic acid, 10 minutes; PGE2 by EIA; read-out: IC50 values for inhibition of COX-2. Here is the method:
Biological Data Microsomal Assay
Inhibitory activity against microsomal h-COX2 was assessed against a microsomal preparation from baculovirus infected SF9 cells. An aliquot of microsomal preparation was thawed slowly on ice and a 1/40,000 dilution prepared from it into the assay buffer (sterile water, degassed with argon containing 100 mM HEPES (pH 7.4), 10 mM EDTA (pH7.4), 1 mM phenol, 1 mM reduced glutathione, 20 mg/ml gelatin and 0.001 mM Hematin). Once diluted the enzyme solution was then sonicated for 5 seconds (Branson sonicator, setting 4, 1 cm tip) to ensure a homogeneous suspension. 155 μl enzyme solution was then added to each well of a 96-well microtitre plate containing either 5 μl test compound (40× required test concentration) or 5 μl DMSO for controls. Plates were then mixed and incubated at room temperature for 1 hour. Following the incubation period, 40 μl of 0.5 μM arachidonic acid was added to each well to give a final concentration of 0.1 μM. Plates were then mixed and incubated for exactly 10 minutes (room temperature) prior to addition of 25 μl 1M HCl (hydrochloric acid) to each well to stop the reaction. 25 μl of 1M NaOH (sodium hydroxide) was then added to each well to neutralise the solution prior to determination of PGE2 levels by enzyme immunoassay (EIA).

Structures are written as SMILES.

Consider 47 compounds from patent publication US7446117B2, “Cox-2 inhibiting pyridine derivatives” (Glaxo Group Limited, priority 2002, dated 2008).

Turning to `CCc1cc(-c2ccc(S(C)(=O)=O)cc2)nc(NCc2ccccn2)c1C#N` [Example 222, 4-Ethyl-6-[4-(methylsulfonyl)phenyl]-2-[(2-pyridinylmethyl)amino]-3-pyridinecarbonitrile], the IC50 is no more than 500 nM.
Then `Cc1cc(NC2CCCCC2)nc(-c2ccc(S(C)(=O)=O)cc2)c1` [Example 17], with no more than 500 nM; and `CS(=O)(=O)c1ccc(-c2cc(C(F)(F)F)cc(N[C@H]3CC[C@H](C)CC3)n2)cc1` [Example 207], with no more than 500 nM.
Under `CCCCNc1cc(C(F)(F)F)cc(-c2ccc(S(C)(=O)=O)cc2)n1` [Example 18] stands no more than 500 nM; under `Cc1cc(NCc2ccc(C)nc2)nc(-c2ccc(S(C)(=O)=O)cc2)c1` [Example 98], no more than 500 nM; under `Cc1cc(-c2ccc(S(C)(=O)=O)cc2)nc(NCc2ccccc2)c1C` [Example 59], no more than 500 nM.
For the compound `CCc1cc(Nc2ccc(F)cc2)nc(-c2ccc(S(C)(=O)=O)cc2)c1` [Example 105], the IC50 was no more than 500 nM.
Then `CCC(CC)Nc1cc(C(F)(F)F)cc(-c2ccc(S(C)(=O)=O)cc2)n1` [Example 211], with no more than 500 nM.
Under `CS(=O)(=O)c1ccc(-c2cc(C(F)(F)F)cc(NC3CCCC3)n2)cc1` [Example 26] stands no more than 500 nM; under `CN(Cc1ccccc1)c1cccc(-c2ccc(S(C)(=O)=O)cc2)n1` [Example 61], no more than 500 nM.
Under `CS(=O)(=O)c1ccc(-c2cc(CF)cc(NCc3ccccc3)n2)cc1` [Example 104] stands no more than 500 nM; under `Cc1cc(NCC(C)C)nc(-c2ccc(S(C)(=O)=O)cc2)c1` [Example 31], no more than 500 nM; under `Cc1cc(NCc2ncnn2C)nc(-c2ccc(S(C)(=O)=O)cc2)c1` [Example 87], no more than 500 nM.
Turning to `Cc1ccc(CNc2cc(C(F)(F)F)cc(-c3ccc(S(C)(=O)=O)cc3)n2)cc1` [Example 48], the IC50 was no more than 500 nM.
Consider `Cc1cc(Nc2ccccc2Cl)nc(-c2ccc(S(C)(=O)=O)cc2)c1` [Example 13], for which the IC50 is no more than 500 nM.
Under `Cc1cc(NCc2conc2C)nc(-c2ccc(S(C)(=O)=O)cc2)c1` [Example 202] stands no more than 500 nM; under `CCc1cc(NC2CCOCC2)nc(-c2ccc(S(C)(=O)=O)cc2)c1` [Example 89, 4-Ethyl-6-[4-(methylsulfonyl)phenyl]-N-(tetrahydro-2H-pyran-4-yl)pyridine-2-amine], no more than 500 nM; under `CCc1cc(-c2ccc(S(C)(=O)=O)cc2)nc(NCC2CCCCC2)c1C#N` [Example 231], no more than 500 nM.
Under `Cc1ccc(CNc2cc(C(F)(F)F)cc(-c3ccc(S(C)(=O)=O)cc3)n2)o1` [Example 22] stands no more than 500 nM; under `Cn1ncnc1CNc1cc(C(F)(F)F)cc(-c2ccc(S(C)(=O)=O)cc2)n1` [Example 173], no more than 500 nM.
Under `CCc1cc(NCc2ncc[nH]2)nc(-c2ccc(S(C)(=O)=O)cc2)c1` [Example 84] stands no more than 500 nM; under `CC(C)(C)c1cc(NCc2ccccc2)nc(-c2ccc(S(C)(=O)=O)cc2)c1` [Example 151], no more than 500 nM.
As to `Cc1cc(-c2ccc(S(C)(=O)=O)cc2)nc(N(C)Cc2ccccc2)c1` [Example 3, N-Benzyl-N-methyl-4-methyl-6-[4-(methylsulfonyl)phenyl]pyridine-2-amine], the IC50 was no more than 500 nM.
Then `CCc1cc(OCc2cccnc2)nc(-c2ccc(S(C)(=O)=O)cc2)c1` [Example 101], with no more than 500 nM; and `CCc1cc(-c2ccc(S(C)(=O)=O)cc2)nc(NCc2ccccc2)c1C#N` [Example 148], with no more than 500 nM; and `CCN(Cc1ccccc1)c1cc(C(F)(F)F)cc(-c2ccc(S(C)(=O)=O)cc2)n1` [Example 193], with no more than 500 nM.
Consider `CS(=O)(=O)c1ccc(-c2cc(C(F)(F)F)cc(NCc3ccccn3)n2)cc1` [Example 208], for which the IC50 was no more than 500 nM.
As for `CN(Cc1ccccc1)c1cc(C(F)(F)F)cc(-c2ccc(S(C)(=O)=O)cc2)n1` [Example 5], the IC50 is no more than 500 nM.
Under `CCc1cc(OCc2ccccc2)nc(-c2ccc(S(C)(=O)=O)cc2)c1` [Example 96] stands no more than 500 nM; under `Cc1ccc(COc2cc(C(F)(F)F)cc(-c3ccc(S(C)(=O)=O)cc3)n2)cn1` [Example 186], no more than 500 nM.
Turning to `CS(=O)(=O)c1ccc(-c2cc(C(F)(F)F)cc(NCc3ncc[nH]3)n2)cc1` [Example 153], the half-maximal inhibitory concentration (IC50) was no more than 500 nM.
Consider `Cc1nc(CNc2cc(C(F)(F)F)cc(-c3ccc(S(C)(=O)=O)cc3)n2)no1` [Example 214], for which the IC50 is no more than 500 nM.
As for `CCc1cc(-c2ccc(S(C)(=O)=O)cc2)nc(OCc2ccccn2)c1C#N` [Example 217], the IC50 was no more than 500 nM.
Under `Cc1cc(NCc2ccc(F)cc2)nc(-c2ccc(S(C)(=O)=O)cc2)c1` [Example 21] stands no more than 500 nM.
Take `CS(=O)(=O)c1ccc(-c2cc(C(F)(F)F)cc(NCc3cnccn3)n2)cc1` [Example 168]: the IC50 was no more than 500 nM.
Consider `Cc1cc(OCc2cc(C)n[nH]2)nc(-c2ccc(S(C)(=O)=O)cc2)c1` [Example 85], for which the IC50 was no more than 500 nM.
Then `CS(=O)(=O)c1ccc(-c2cc(C(F)(F)F)cc(NCc3ccco3)n2)cc1` [Example 6], with no more than 500 nM; and `Cc1cc(-c2ccc(S(C)(=O)=O)cc2)nc(NCc2cnn(C)c2)c1C#N` [Example 131], with no more than 500 nM; and `Cc1cc(-c2ccc(S(C)(=O)=O)cc2)nc(NCc2cnn(C)c2)c1Cl` [Example 147], with no more than 500 nM.
`CCc1cc(-c2ccc(S(C)(=O)=O)cc2)nc(OCc2ccc(C)nc2)c1C#N` [Example 236, 4-Ethyl-2-{[(6-methyl-3-pyridinyl)methyl]oxy}-6-[4-(methylsulfonyl)phenyl]-3-pyridinecarbonitrile]: the IC50 was no more than 500 nM.
Turning to `Cc1cccc(CNc2cc(C(F)(F)F)cc(-c3ccc(S(C)(=O)=O)cc3)n2)n1` [Example 180], the IC50 is no more than 500 nM.
Then `CCc1cc(NCc2cnn(C)c2C)nc(-c2ccc(S(C)(=O)=O)cc2)c1` [Example 139], with no more than 500 nM; and `Cc1cc(OCC(C)C)nc(-c2ccc(S(C)(=O)=O)cc2)c1` [Example 10], with no more than 500 nM.
Regarding `C=CCNc1cc(C(F)(F)F)cc(-c2ccc(S(C)(=O)=O)cc2)n1` [Example 12], the IC50 was no more than 500 nM.
For `CCC(CC)Nc1cc(C)cc(-c2ccc(S(C)(=O)=O)cc2)n1` [Example 74], the IC50 is no more than 500 nM.
In the case of `Cc1ncccc1COc1cc(C(F)(F)F)cc(-c2ccc(S(C)(=O)=O)cc2)n1` [Example 185], the IC50 is no more than 500 nM.
Then `CCOC(=O)c1c(CC)cc(-c2ccc(S(C)(=O)=O)cc2)nc1NCc1ccccc1` [Example 197], with no more than 500 nM.

One may read the IC50 as the midpoint of a concentration-inhibition curve.
